Consider 14 compounds from article PMC4392609, “Interactions of antiretroviral drugs with the SLC22A1 (OCT1) drug transporter” (Frontiers in Pharmacology, 2015).

The structures appear in SMILES notation. Values joined by “and” are separate entries in the source; they are usually repeats but may differ in a detail not shown here. Equal entries are not always repeated. Where two headings read alike, the source gives them in different places.

For series [1], the target named is T1, SLC22A1 (Homo sapiens, UniProt O15245).
T1 sequence (O15245 1-554): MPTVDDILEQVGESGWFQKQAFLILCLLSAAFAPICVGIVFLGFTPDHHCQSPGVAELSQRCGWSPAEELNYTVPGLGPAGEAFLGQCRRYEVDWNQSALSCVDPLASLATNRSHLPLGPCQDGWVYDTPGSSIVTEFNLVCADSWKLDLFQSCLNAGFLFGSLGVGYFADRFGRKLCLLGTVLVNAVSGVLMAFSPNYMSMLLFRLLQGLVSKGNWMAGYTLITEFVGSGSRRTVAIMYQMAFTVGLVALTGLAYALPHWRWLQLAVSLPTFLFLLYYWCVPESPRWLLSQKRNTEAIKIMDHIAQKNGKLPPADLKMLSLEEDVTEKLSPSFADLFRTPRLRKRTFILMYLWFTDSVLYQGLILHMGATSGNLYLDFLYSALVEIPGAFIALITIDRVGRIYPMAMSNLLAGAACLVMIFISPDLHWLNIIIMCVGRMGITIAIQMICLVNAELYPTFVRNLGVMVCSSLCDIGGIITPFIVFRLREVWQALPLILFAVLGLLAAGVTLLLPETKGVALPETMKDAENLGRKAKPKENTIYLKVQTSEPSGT
The series is described as follows: Tetraethylammonium accumulation in SLC22A1-overexpressing KCL22 cells co-incubated with 50 μM test drug. The note with it: for Reduction in cellular accumulation (of tetraethylammonium): 50 μM drug, SLC22A1-overexpressing KCL22 cells.

In series [2] the target is T1, SLC22A1. Further details: expressed in transfected cells; method as in Zhang et al., 2000. The note with it: ref Zhang et al., 2000; cited from earlier work.
In series [3] the target is T1, SLC22A1. Further details: expressed in transfected cells; method as in Jung et al., 2008. The note with it: 1-methyl-4-phenylpyridinium as substrate, HEK-293 cells, 1 min incubation; efavirenz assessed only at 5 μM; ref Jung et al., 2008; cited from earlier work.
For series [4] the following is noted: ref Villani et al., 1999; cited from earlier work.
In series [5] the target is T1, SLC22A1. The series is described as follows: SLC22A1 IC50 determination (inhibition of tetraethylammonium accumulation over a concentration range). It counts as cell-based. Further details: expressed in transfected cells. The settings on record: for TEA accumulation when 100 μM inhibitor used (%compared to inhibitor-free control): tetraethylammonium 5.5 μM, 30 min.
Series [6] addresses T1, SLC22A1. The note with it: 30 min.
Description: Using intracellular radioactivity readings, the amount of drug in mock transfected cells was compared to SLC22A1-overexpressing KCL22 cells (% ± SD).
[7] abbreviates: SLC22A1-overexpressing KCL22 cells, 100 μM inhibitor.

For the compound `Cc1cc(/C=C/C#N)cc(C)c1Nc1ccnc(Nc2ccc(C#N)cc2)n1` [rilpivirine], at SLC22A1 [1], the “Reduction in cellular accumulation (of tetraethylammonium)” value (“Reduction in cellular accumulation” below) is reported as 41.2%.
Consider `CC(C)c1nc(CN(C)C(=O)N[C@H](C(=O)N[C@@H](Cc2ccccc2)C[C@H](O)[C@H](Cc2ccccc2)NC(=O)OCc2cncs2)C(C)C)cs1` [ritonavir], for which the “Effect on tetraethylammonium accumulation in SLC22A1-overexpressing Hela cells” value (“Effect” for short) on SLC22A1 [2] is “able to reduce tetraethylammonium accumulation”. The “SLC22A1 inhibition in vitro” value at SLC22A1 [3] was “inhibited”.
By IC50 is commonly meant the point on the concentration scale where inhibition reaches its midpoint. For `O=C1Nc2ccc(Cl)cc2[C@@](C#CC2CC2)(C(F)(F)F)O1` [efavirenz], the “Maximum plasma concentration of efavirenz” value in series [4] was 12.7 µM. Also, the “TEA accumulation when 100 μM inhibitor used (%compared to inhibitor-free control)” value on SLC22A1 [5] (setting [7]) was found to be 39.7%. Also, the IC50 at SLC22A1 [5] (read-out: Absolute IC50) is 21.8 µM. In addition, the IC50 on SLC22A1 [5] (read-out: Relative IC50) turned out to be 7.4 µM. Moreover, at SLC22A1 [6] (human, 20 μM), the “Accumulation in SLC22A1-expressing cells compared to mock-transfected cells (% higher)” value is reported as 17% and the “Amount of substrate in mock-transfected cells compared to SLC22A1-overexpressing cells (% less)” value is on record as 17%. For the same compound, on SLC22A1 [1], the “Reduction in cellular accumulation” value amounted to 50.0%. Moreover, the “SLC22A1 inhibition in vitro” value on SLC22A1 [3] is “did not show SLC22A1 inhibition”.
`CC(C)(C)NC(=O)[C@@H]1C[C@@H]2CCCC[C@@H]2CN1C[C@@H](O)[C@H](Cc1ccccc1)NC(=O)[C@H](CC(N)=O)NC(=O)c1ccc2ccccc2n1` [saquinavir]: the “Effect” value at SLC22A1 [2] is given as “able to reduce tetraethylammonium accumulation”.
Turning to `COc1cc2nc(N3CCN(C(=O)c4ccco4)CC3)nc(N)c2cc1OC` [prazosin], the “Reduction in cellular tetraethylammonium accumulation” value on SLC22A1 [5] (100 μM inhibitor, SLC22A1-overexpressing KCL22 cells) was 84%. In addition, the “TEA accumulation when 100 μM inhibitor used (%compared to inhibitor-free control)” value on SLC22A1 [5] (setting [7]) turned out to be 16.1%. In addition, the concentration for half-maximal inhibition (IC50) on SLC22A1 [5] (read-out: Absolute IC50) was 2.8 µM; on SLC22A1 [5] (read-out: Relative IC50) it was 2.3 µM.
For `Cc1nnc(C(=O)NC(C)(C)c2nc(C(=O)NCc3ccc(F)cc3)c(O)c(=O)n2C)o1` [raltegravir], on SLC22A1 [1], the “Tetraethylammonium concentration in cells after 30 min incubation” value turned out to be 9.6 ± 1.4 µM.
Regarding `Cc1cc(C#N)cc(C)c1Oc1nc(Nc2ccc(C#N)cc2)nc(N)c1Br` [etravirine], at SLC22A1 [1], the “Reduction in cellular accumulation” value was 22.5%.
For `Cc1cn([C@H]2C[C@H](N=[N+]=[N-])[C@@H](CO)O2)c(=O)[nH]c1=O` [zidovudine], the “Tetraethylammonium concentration in cells after 30 min incubation” value on SLC22A1 [1] is 8.5 ± 3.1 µM.
In the case of `Cc1ccnc2c1NC(=O)c1cccnc1N2C1CC1` [nevirapine], the “Reduction in cellular accumulation” value at SLC22A1 [1] is reported as 24.5%.
As to `COC(=O)N[C@H](C(=O)N[C@@H](Cc1ccccc1)[C@@H](O)CN(Cc1ccc(-c2ccccn2)cc1)NC(=O)[C@@H](NC(=O)OC)C(C)(C)C)C(C)(C)C` [atazanavir], the “SLC22A1 inhibition in vitro” value on SLC22A1 [3] was “no SLC22A1-inhibiting capability”.
For the compound `CC(C)(C)NC(=O)[C@@H]1CN(Cc2cccnc2)CCN1C[C@@H](O)C[C@@H](Cc1ccccc1)C(=O)N[C@H]1c2ccccc2C[C@H]1O` [indinavir], on SLC22A1 [2], the “Effect” value was “able to reduce tetraethylammonium accumulation”.
Turning to `Nc1ccn([C@@H]2CS[C@H](CO)O2)c(=O)n1` [lamivudine], the “SLC22A1 inhibition in vitro” value at SLC22A1 [3] was “significant inhibition”.
As for `CC[N+](CC)(CC)CC` [tetraethylammonium], on SLC22A1 [6] (KCL22 cells, 100 μM prazosin, efavirenz 20 μM, darunavir 20 μM, tetraethylammonium 1 μM), the “Amount of substrate in SLC22A1-overexpressing cells subjected to prazosin compared to SLC22A1-overexpressing cells (% less)” value worked out at 76%. On SLC22A1 [6] (KCL22 cells, efavirenz 20 μM, darunavir 20 μM, tetraethylammonium 1 μM), the “Amount of substrate in mock-transfected cells compared to SLC22A1-overexpressing cells (% less)” value was found to be 92%. For the same compound, the “Tetraethylammonium cellular accumulation in mock transfected control KCL22 cells” value on SLC22A1 [1] (tetraethylammonium 5.5 μM, 30 min, no inhibitor, mean ± SD, n = 3) was 0.3 ± 0.04 µM and 0.3 ± 0.004 µM. Also, the “Tetraethylammonium cellular accumulation in SLC22A1-overexpressing KCL22 cells” value at SLC22A1 [1] (tetraethylammonium 5.5 μM, 30 min, no inhibitor, mean ± SD, n = 9) was found to be 10.6 ± 0.8 µM.
For the compound `Cc1c(O)cccc1C(=O)N[C@@H](CSc1ccccc1)[C@H](O)CN1C[C@H]2CCCC[C@H]2C[C@H]1C(=O)NC(C)(C)C` [nelfinavir], the “Effect” value on SLC22A1 [2] is reported as “able to reduce tetraethylammonium accumulation”. Further, at SLC22A1 [3], the “SLC22A1 inhibition in vitro” value is “inhibited”.
